The first series has as its system Raw264.7 cells. Put plainly: Cell number (CellNb) from image analysis of the phenotypic cell-based assay. The following applies: confirmation, 0.2 uM.
Consider `NNC(=O)c1ccc(COc2ccc(F)cc2)o1` [IPK 000 124 65], for which the “QIM Confirm CellNb 0.2 uM” value came to 267.0.
On the same count and under the same terms, in the case of `Cc1cccc(/C=N/NC(=O)c2ccncc2)c1` [IPK 000 043 26] it was 413.6.

Staying with this series, now noted: confirmation, 2 uM.
Consider `O=C(O)COc1ccccc1/C=N/NC(=O)c1ccncc1` [IPK 000 105 19], for which the “QIM Confirm CellNb 2 uM” value is 566.4.
Still for that read-out and setting: in the case of `CCOC(=O)/C=C/C(=O)NNC(=O)c1cccs1` [IPK 000 109 99] it was 174.3; in that of `N#Cc1cc(Br)c([N+](=O)[O-])cc1C#N` [IPK 000 042 72], 96.1.
The same measure, in the same setting: in the case of `Cc1cccc(/C=N/NC(=O)c2ccncc2)c1` [IPK 000 043 26] it was 523.3.

Still in this series, the particulars now being: confirmation, 20 uM.
In the case of `O=C(N/N=C\c1cc2c(s1)CCCCC2)c1ccncc1` [IPK 000 102 07], the “QIM Confirm CellNb 20 uM” value is 124.8.
Still for that read-out and setting: the result for `Cc1cccc(/C=N/NC(=O)c2ccncc2)c1` [IPK 000 043 26] reads 430.3.

Staying with this series, now noted: primary screen, 20 μM.
`O=[N+]([O-])c1cc(Br)cc(/C=N/c2ccccc2O)c1O` [IPK 000 080 69]: the “Primary QIM CellNb” value was determined as 123.5.
In the case of `O=C(O)COc1ccccc1/C=N/NC(=O)c1ccncc1` [IPK 000 105 19], the “Primary QIM CellNb” value is given as 374.3.
Still for that read-out and setting: the result for `O=C(N/N=C/c1ccc(F)cc1)c1ccncc1` [IPK 000 041 52] reads 262.5; that for `Cc1cc(/C=C(/C#N)C(=O)Nc2cccc(Br)c2)c(C)n1-c1ccc(C(=O)O)cc1` [IPK 000 113 05], 162.0; that for `CC(/C=N/NC(=O)c1cccc(F)c1)c1ccccc1` (stereo not drawn) [IPK 000 104 13], 115.8.
As for `O=C(N/N=C/c1ccccc1Cl)c1ccncc1` [IPK 000 043 05], the “Primary QIM CellNb” value came out at 228.8.
The same measure, in the same setting: the result for `C/C(=N\NC(N)=S)c1ccccc1O` [IPK 000 080 38] reads 307.5.
The same measure, in the same setting: in the case of `NNC(=O)c1ccc(COc2ccc(F)cc2)o1` [IPK 000 124 65] it was 490.8; in that of `CCOC(=O)/C=C/C(=O)NNC(=O)c1cccs1` [IPK 000 109 99], 183.0; in that of `N#Cc1cc(Br)c([N+](=O)[O-])cc1C#N` [IPK 000 042 72], 152.0.
On the same count and under the same terms, in the case of `O=C(N/N=C\c1cc2c(s1)CCCCC2)c1ccncc1` [IPK 000 102 07] it was 116.0; in that of `Cc1cccc(/C=N/NC(=O)c2ccncc2)c1` [IPK 000 043 26], 347.3.

The next series relates to Raw264.7 cells.
Assay: not given
The following applies: mouse, 5 days, 0.2 uM.
As for `Cc1cccc(/C=N/NC(=O)c2ccncc2)c1` [IPK 000 043 26], the “QIM Confirm CellNb 0.2 uM” value came to 98.6.

Still in this series, the particulars now being: mouse, 5 days, 2 uM.
Consider `CCOC(=O)/C=C/C(=O)NNC(=O)c1cccs1` [IPK 000 109 99], for which the “QIM Confirm CellNb 2 uM” value is recorded as 101.3.
Take `N#Cc1cc(Br)c([N+](=O)[O-])cc1C#N` [IPK 000 042 72]: the “QIM Confirm CellNb 2 uM” value worked out at 82.5.
Turning to `Cc1cccc(/C=N/NC(=O)c2ccncc2)c1` [IPK 000 043 26], the “QIM Confirm CellNb 2 uM” value was determined as 99.5.

The same series, now with this note: mouse, 5 days, 20 uM.
On to `O=C(N/N=C/c1ccccc1Cl)c1ccncc1` [IPK 000 043 05], for which the “QIM Confirm CellNb 20 uM” value was determined as 80.2.
Turning to `O=C(N/N=C\c1cc2c(s1)CCCCC2)c1ccncc1` [IPK 000 102 07], the “QIM Confirm CellNb 20 uM” value was found to be 79.6.
On the same count and under the same terms, in the case of `Cc1cccc(/C=N/NC(=O)c2ccncc2)c1` [IPK 000 043 26] it was 72.4.

Staying with this series, now noted: mouse, 5 days, 20 μM.
For `O=[N+]([O-])c1cc(Br)cc(/C=N/c2ccccc2O)c1O` [IPK 000 080 69], the “Primary QIM CellNb” value was found to be 37.6.
`O=C(O)COc1ccccc1/C=N/NC(=O)c1ccncc1` [IPK 000 105 19]: the “Primary QIM CellNb” value is listed as 104.1.
Still for that read-out and setting: in the case of `O=C(N/N=C/c1ccc(F)cc1)c1ccncc1` [IPK 000 041 52] it was 103.2; in that of `Cc1cc(/C=C(/C#N)C(=O)Nc2cccc(Br)c2)c(C)n1-c1ccc(C(=O)O)cc1` [IPK 000 113 05], 31.6.
Same read-out and setting: the result for `CC(/C=N/NC(=O)c1cccc(F)c1)c1ccccc1` (stereo not drawn) [IPK 000 104 13] reads 25.2; that for `O=C(N/N=C/c1ccccc1Cl)c1ccncc1` [IPK 000 043 05], 101.6.
In the case of `C/C(=N\NC(N)=S)c1ccccc1O` [IPK 000 080 38], the “Primary QIM CellNb” value is reported as 32.1.
Same read-out and setting: in the case of `NNC(=O)c1ccc(COc2ccc(F)cc2)o1` [IPK 000 124 65] it was 45.0.
Same read-out and setting: in the case of `CCOC(=O)/C=C/C(=O)NNC(=O)c1cccs1` [IPK 000 109 99] it was 20.3; in that of `N#Cc1cc(Br)c([N+](=O)[O-])cc1C#N` [IPK 000 042 72], −1.9.
As for `O=C(N/N=C\c1cc2c(s1)CCCCC2)c1ccncc1` [IPK 000 102 07], the “Primary QIM CellNb” value is reported as 99.5.
Turning to `Cc1cccc(/C=N/NC(=O)c2ccncc2)c1` [IPK 000 043 26], the “Primary QIM CellNb” value amounted to 102.2.

For the next series, the system named is M. tuberculosis H37Rv-GFP. Put plainly: microbe, parasite or virus in culture. Format: cell-based, Mycobacterium tuberculosis. The following applies: Mycobacterium tuberculosis, H37RV, Macrophage; confirmation, 20 uM; read-out: QIM Confirm % Inhibition 20 uM.
In the case of `O=[N+]([O-])c1cc(Br)cc(/C=N/c2ccccc2O)c1O` [IPK 000 080 69], the inhibition at 20 µM is 16.5%.
Still for that read-out and setting: the result for `O=C(O)COc1ccccc1/C=N/NC(=O)c1ccncc1` [IPK 000 105 19] reads 106%; that for `O=C(N/N=C/c1ccc(F)cc1)c1ccncc1` [IPK 000 041 52], 93.7%; that for `Cc1cc(/C=C(/C#N)C(=O)Nc2cccc(Br)c2)c(C)n1-c1ccc(C(=O)O)cc1` [IPK 000 113 05], 56.4%.
On the same count and under the same terms, in the case of `CC(/C=N/NC(=O)c1cccc(F)c1)c1ccccc1` (stereo not drawn) [IPK 000 104 13] it was 89.6%; in that of `O=C(N/N=C/c1ccccc1Cl)c1ccncc1` [IPK 000 043 05], 104%; in that of `C/C(=N\NC(N)=S)c1ccccc1O` [IPK 000 080 38], 3.4%.
As for `NNC(=O)c1ccc(COc2ccc(F)cc2)o1` [IPK 000 124 65], the inhibition at 20 µM stood at 94.3%.
As to `CCOC(=O)/C=C/C(=O)NNC(=O)c1cccs1` [IPK 000 109 99], the inhibition at 20 µM is 28.1%.
Still for that read-out and setting: in the case of `N#Cc1cc(Br)c([N+](=O)[O-])cc1C#N` [IPK 000 042 72] it was 57.6%; in that of `O=C(N/N=C\c1cc2c(s1)CCCCC2)c1ccncc1` [IPK 000 102 07], 84.7%; in that of `Cc1cccc(/C=N/NC(=O)c2ccncc2)c1` [IPK 000 043 26], 102%.

Still in this series, the particulars now being: Mycobacterium tuberculosis, H37RV, Macrophage; primary screen, 20 μM; read-out: Primary QIM % Inhibition.
Take `O=[N+]([O-])c1cc(Br)cc(/C=N/c2ccccc2O)c1O` [IPK 000 080 69]: the inhibition at 20 µM was -42.5%.
Still for that read-out and setting: the result for `O=C(O)COc1ccccc1/C=N/NC(=O)c1ccncc1` [IPK 000 105 19] reads 98.7%.
Turning to `O=C(N/N=C/c1ccc(F)cc1)c1ccncc1` [IPK 000 041 52], the inhibition at 20 µM worked out at 75.6%.
As for `Cc1cc(/C=C(/C#N)C(=O)Nc2cccc(Br)c2)c(C)n1-c1ccc(C(=O)O)cc1` [IPK 000 113 05], the inhibition at 20 µM turned out to be 55.4%.
With `CC(/C=N/NC(=O)c1cccc(F)c1)c1ccccc1` (stereo not drawn) [IPK 000 104 13], the inhibition at 20 µM turned out to be 68.8%.
The same measure, in the same setting: in the case of `O=C(N/N=C/c1ccccc1Cl)c1ccncc1` [IPK 000 043 05] it was 97.1%.
On the same count and under the same terms, the result for `C/C(=N\NC(N)=S)c1ccccc1O` [IPK 000 080 38] reads 21%; that for `NNC(=O)c1ccc(COc2ccc(F)cc2)o1` [IPK 000 124 65], 77.1%.
Same read-out and setting: in the case of `CCOC(=O)/C=C/C(=O)NNC(=O)c1cccs1` [IPK 000 109 99] it was 8.5%.
`N#Cc1cc(Br)c([N+](=O)[O-])cc1C#N` [IPK 000 042 72]: the inhibition at 20 µM turned out to be 11.9%.
The same measure, in the same setting: the result for `O=C(N/N=C\c1cc2c(s1)CCCCC2)c1ccncc1` [IPK 000 102 07] reads 94.7%; that for `Cc1cccc(/C=N/NC(=O)c2ccncc2)c1` [IPK 000 043 26], 109%.

As usually defined, the inhibition is the relative decrease from the control value, in per cent.
